Where a name gives a salt, the structure may show the parent alone.
Target: human MCH-1 receptor (Homo sapiens (Human), UniProt Q99705)
Assay: Binding Assay for Human Melanin-Concentrating Hormone (MCH-1) Receptor
Conditions: radioligand displacement, membranes from CHO-K1 cells expressing human MCH-1 receptor; Ki from IC50 by Cheng Prusoff equation; read-out: MCH1 Ki
Protocol: Binding Assay for Human Melanin-Concentrating Hormone (MCH-1) Receptor
Evaluation of the affinity of compounds for the human MCH-1 receptor was accomplished using 4-(3,4,5-tritritiumbenzyloxy)-1-(1-(2-(pyrrolidin-1-yl)ethyl)-1H-indazol-5-yl)pyridin-2(1H)-one and membranes prepared from stable CHO-K1 cells expressing the human MCH-1 receptor obtained from Euroscreen (Batch 1138). Cell membrane homogenates (8.92 μg protein) were incubated for 60 min at 25° C. with 1.4 nM of the [^3H]-labeled compound in the absence or presence of the test compound in 50 mM Tris-HCl buffer, pH 7.4. Nonspecific binding was determined in the presence of 50 μM 1-(5-(4-cyanophenyl)bicyclo[3.1.0]hexan-2-yl)-3-(4-fluoro-3-(trifluoromethyl)phenyl)-1-(3-(4-methylpiperazin-1-yl)propyl)urea. Following incubation, the samples were filtered rapidly under vacuum through Skatron 11731 filters, pre-soaked in 0.5% polyethylenimine, and washed with ice-cold 50 mM Tris-HCl buffer, pH 7.4, (wash setting 9,9,0) using a Skatron cell harvester. The filters were counted for radioactivity in a liquid scintillation counter (Tri-Carb 2100TR, Packard) using a scintillation cocktail (Ultima Gold MV, Perkin Elmer).
The results are expressed as a percent inhibition of the control radioligand specific binding. The IC50 value (concentration causing a half-maximal inhibition of control specific binding) and Hill coefficient (nH) were determined by non-linear regression analysis of the competition curve using Hill equation curve fitting. The inhibition constant (Ki) was calculated from the Cheng Prusoff equation: (Ki=IC50/(1+(L/KD)), where L=concentration of radioligand in the assay, and KD=affinity of the radioligand for the receptor.

Sequence of human MCH-1 receptor (Q99705 whole entry): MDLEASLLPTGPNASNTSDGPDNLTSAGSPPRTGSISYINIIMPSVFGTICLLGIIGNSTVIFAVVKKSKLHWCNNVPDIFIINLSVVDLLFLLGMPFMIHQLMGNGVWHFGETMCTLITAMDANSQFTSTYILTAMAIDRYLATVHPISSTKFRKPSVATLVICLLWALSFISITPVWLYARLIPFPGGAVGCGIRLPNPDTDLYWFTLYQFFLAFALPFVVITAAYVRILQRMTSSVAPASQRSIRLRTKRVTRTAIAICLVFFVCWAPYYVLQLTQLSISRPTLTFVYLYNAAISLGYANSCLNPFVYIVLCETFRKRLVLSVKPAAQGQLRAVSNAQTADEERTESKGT

Row | Structure (SMILES) | Ki [nM]
1 | Cl.Cn1c2c(c3ccc(-n4ccc(-c5ccc(C(F)(F)F)cc5)cc4=O)cc31)CNCCC2 [Example 26, 1-(6-Methyl-1,2,3,4,5,6-hexahydroazepino[4,3-b]indol-8-yl)-4(4-trifluoromethyl)phenyl)pyridin-2(1H)-one hydrochloride] | 6.1
2 | Cn1c2c(c3ccc(-n4ccc(OCc5ccc(Cl)cc5)cc4=O)nc31)CCNCC2 [Example 109, 4-(4-Chlorobenzyloxy)-1-(10-methyl-5,6,7,8,9,10-hexahydropyrido[3′,2′:4,5]pyrrolo[2,3-d]azepin-2-yl)pyridin-2(1H)-one hydrochloride] | 9.6
3 | O=c1cc(-c2ccc(C(F)(F)F)nn2)ccn1-c1ccc2c3c([nH]c2c1)CCNCC3 [Example 8, 1-(1,2,3,4,5,6-Hexahydroazepino[4,5-b]indol-8-yl)-4-(6-(trifluoromethyl)pyridazin-3-yl)pyridin-2(1H)-one dihydrochloride] | 148
4 | Cn1c2c(c3ccc(-n4ccc(OCc5ccc(F)cn5)cc4=O)cc31)CNCCC2 [Example 22, 4-((5-Fluoropyridin-2-yl)methoxy)-1-(6-methyl-1,2,3,4,5,6-hexahydroazepino[4,3-b]indol-8-yl)-)pyridin-2(1H)-one hydrochloride] | 11.2
5 | Cn1c2c(c3ccc(-n4ccc(OCc5ccc(F)cc5)cc4=O)cc31)CCNCC2 [Example 57, 4-(4-Fluorobenzyloxy)-1-(6-methyl-1,2,3,4,5,6-hexahydroazepino[4,5-b]indol-8-yl)pyridin-2(1H)-one hydrochloride] | 7.3
6 | CN1CCc2c(n(C)c3nc(-n4ccc(OCc5ccccc5)cc4=O)ccc23)CC1 [Example 88, 4-(Benzyloxy)-1-(7,10-dimethyl-5,6,7,8,9,10-hexahydropyrido[3′,2′:4,5]pyrrolo[2,3-d]azepin-2-yl)pyridin-2(1H)-one hydrochloride] | 8.7
7 | CC(C)N1CCc2[nH]c3cc(-n4ccc(OCc5ccc(F)cn5)cc4=O)ccc3c2CC1 [Example 42, 4-((5-Fluoropyridin-2-yl)methoxy)-1-(3-isopropyl-1,2,3,4,5,6-hexahydroazepino[4,5-b]indol-8-yl)-pyridin-2(1H)-one hydrochloride] | 17.8
8 | Cn1c2c(c3ccc(-n4ccc(OCc5ccc(F)cc5)cc4=O)nc31)CNCCC2 [Example 112, 4-(4-Fluorobenzyloxy)-1-(10-methyl-5,6,7,8,9,10-hexahydropyrido[3′,2′:4,5]pyrrolo[3,2-c]azepin-2-yl)pyridin-2(1H)-one hydrochloride] | 8.9
9 | Cn1c2c(c3ccc(-n4ccc(-c5cnc(C(F)(F)F)nc5)cc4=O)cc31)CNCCC2 [Example 25, 1-(6-Methyl-1,2,3,4,5,6-hexahydroazepino[4,3-b]indol-8-yl)-4-(2-(trifluoromethyl)pyrimdin-5-yl)pyridin-2(1H)-one hydrochloride] | 42.3
10 | CCN1CCc2c(n(C)c3nc(-n4ccc(OCc5ccccc5)cc4=O)ccc23)CC1 [Example 87, 4-(Benzyloxy)-1-(7-ethyl-10-methyl-5,6,7,8,9,10-hexahydropyrido[3′,2′:4,5]pyrrolo[2,3-d]azepin-2-yl)pyridin-2(1H)-one hydrochloride] | 6.9
11 | CN1CCCc2c(c3ccc(-n4ccc(-c5ccc(C(F)(F)F)nn5)cc4=O)cc3n2C)C1 [Example 69, 1-(2,6-Dimethyl-1,2,3,4,5,6-hexahydroazepino[4,3-b]indol-8-yl)-4-(6-(trifluoromethyl)pyridazin-3-yl)pyridin-2(1H)-one hydrochloride] | 12
12 | Cn1c2c(c3ccc(-n4ccc(-c5ccc(C(F)(F)F)nn5)cc4=O)cc31)CCNCC2 [Example 2, 1-(6-Methyl-1,2,3,4,5,6-hexahydroazepino[4,5-b]indol-8-yl)-4-(6-(trifluoromethyl)pyridazin-3-yl)pyridin-2(1H)-one dihydrochloride] | 14.4
13 | Cn1c2c(c3ccc(N4CCN(CCc5ccccn5)CC4=O)cc31)CNCCC2 [Example 59, 1-(6-Methyl-1,2,3,4,5,6-hexahydroazepino[4,3-b]indol-8-yl)-4-(2-(pyridin-2-yl)ethyl)piperazin-2-one dihydrochloride] | 44
14 | Cn1c2c(c3ccc(-n4ccc(OCc5ccc(F)cc5)cc4=O)cc31)CNCCC2 [Example 103, 4-(4-Fluorobenzyloxy)-1-(6-methyl-1,2,3,4,5,6-hexahydroazepino[4,3-b]indol-8-yl)pyridin-2(1H)-one hydrochloride] | 6
15 | Cn1c2c(c3ccc(-n4ccc(-c5ccc(C(F)(F)F)cc5)cc4=O)nc31)CNCCC2 [Example 95, 1-(10-methyl-5,6,7,8,9,10-hexahydropyrido[3′,2′:4,5]pyrrolo[3,2-c]azepin-2-yl)-4-(4-(trifluoromethyl)phenyl)pyridin-2(1H)-one hydrochloride] | 7.8
16 | Cn1c2c(c3ccc(-n4ccc(OCc5ccc(Cl)cc5F)cc4=O)nc31)CCNCC2 [Example 84, 4-(4-Chloro-2-fluorobenzyloxy)-1-(10-methyl-5,6,7,8,9,10-hexahydropyrido[3′,2′:4,5]pyrrolo[2,3-d]azepin-2-yl)pyridin-2(1H)-one hydrochloride] | 11
17 | Cn1c2c(c3ccc(-n4ccc(OCc5ccc(F)cc5F)cc4=O)nc31)CCNCC2 [Example 83, 4-(2,4-Difluorobenzyloxy)-1-(10-methyl-5,6,7,8,9,10-hexahydropyrido[3′,2′:4,5]pyrrolo[2,3-d]azepin-2-yl)pyridin-2(1H)-one hydrochloride] | 13
18 | Cn1c2c(c3ccc(-n4ccc(OCc5ccc(C(F)(F)F)nc5)cc4=O)cc31)CNCCC2 [Example 24, 1-(6-Methyl-1,2,3,4,5,6-hexahydroazepino[4,3-b]indol-8-yl)-4-((6-(trifluoromethyl)pyridin-3-yl)methoxy)pyridin-2(1H)-one hydrochloride] | 6.4
19 | Cl.Cn1c2c(c3ccc(-n4ccc(-c5ccc(C(F)(F)F)cn5)cc4=O)cc31)CCCNC2 [Example 20, 1-(10-Methyl-1,2,3,4,5,10-hexahydroazepino[3,4-b]indol-8-yl)-4-(5-trifluoromethyl)pyridin-2-yl)pyridin-2(1H)-one hydrochloride] | 242
20 | O=c1cc(-c2ccc(C(F)(F)F)cn2)ccn1-c1ccc2c3c([nH]c2c1)CCNCC3 [Example 9, 1-(1,2,3,4,5,6-Hexahydroazepino[4,5-b]indol-8-yl)-4-(5-(trifluoromethyl)pyridin-2-yl)pyridin-2(1H)-one dihydrochloride] | 1370
21 | Cn1c2c(c3ccc(-n4ccc(-c5ccc(C(F)(F)F)nc5)nc4=O)cc31)CNCCC2 [Example 108, 1-(6-Methyl-1,2,3,4,5,6-hexahydroazepino[4,3-b]indol-8-yl)-4-(6-(trifluoromethyl)pyridin-3-yl)pyrimidin-2(1H)-one hydrochloride] | 60
22 | Cn1c2c(c3ccc(-n4ncc(OCc5ccc(F)cn5)cc4=O)cc31)CNCCC2 [Example 39, 5-((5-Fluoropyridin-2-yl)methoxy)-2-(6-methyl-1,2,3,4,5,6-hexahydroazepino[4,3-b]indol-8-yl)pyridazin-3(2H)-one hydrochloride] | 16.8
23 | Cn1c2c(c3ccc(-n4ccc(CCc5ccccc5)nc4=O)cc31)CCNCC2 [Example 101, 1-(6-Methyl-1,2,3,4,5,6-hexahydroazepino[4,5-b]indol-8-yl)-4-phenethylpyrimidin-2(1H)-one hydrochloride] | 9.9
24 | Cn1c2c(c3ccc(-n4ccc(-c5cnc(C(F)(F)F)nc5)cc4=O)cc31)CCNCC2 [Example 6, 1-(6-Methyl-1,2,3,4,5,6-hexahydroazepino[4,5-b]indol-8-yl)-4-(2-(trifluoromethyl)pyrimidin-5-yl)pyridin-2(1H)-one dihydrochloride] | 131
25 | Cn1c2c(c3ccc(-n4ccc(OCc5ncc(F)cc5F)cc4=O)nc31)CCNCC2 [Example 111, 4-((3,5-Difluoropyridin-2-yl)methoxy)-1-(10-methyl-5,6,7,8,9,10-hexahydropyrido[3′,2′:4,5]pyrrolo[2,3-d]azepin-2-yl)pyridin-2(1H)-one hydrochloride] | 71
26 | Cn1c2c(c3ccc(-n4ccc(OCc5ccc(Cl)cc5)cc4=O)cc31)CCNCC2 [Example 100, 4-(4-Chlorobenzyloxy)-1-(6-methyl-1,2,3,4,5,6-hexahydroazepino[4,5-b]indol-8-yl)pyridin-2(1H)-one hydrochloride] | 10
27 | Cn1c2c(c3ccc(-n4ccc(-c5ccc(C(F)(F)F)nc5)cc4=O)cc31)CCNCC2 [Example 4, 1-(6-Methyl-1,2,3,4,5,6-hexahydroazepino[4,5-b]indol-8-yl)-4-(6-(trifluoromethyl)pyridin-3-yl)pyridin-2(1H)-one dihydrochloride] | 7.1
28 | Cn1c2c(c3ccc(-n4ccc(-c5ccc(C(F)(F)F)cc5)nc4=O)cc31)CCNCC2 [Example 49, 1-(6-Methyl-1,2,3,4,5,6-hexahydroazepino[4,5-b]indol-8-yl)-4-(4-(trifluoromethyl)phenyl)pyrimidin-2(1H)-one hydrochloride] | 17

Source: patent US8637501B2, “Azinone-substituted azepino[b]indole and pyrido-pyrrolo-azepine MCH-1 antagonists, methods of making, and use thereof” (Albany Molecular Research, Inc., priority 2009, dated 2014)
